Assay results: US8680076B2, “Methods of treatment, improvement and prevention using haloaryl substituted aminopurines” (Signal Pharmaceuticals, LLC, priority 2010, dated 2014)
Counter-ions that a name gives are not always drawn.

Key:
Assay type in all cases: in vivo
[1] = tested on: DBA/2J mice, bleomycin-induced skin fibrosis; test: Bleomycin-induced dermal fibrosis mouse model (preventive treatment); conditions: 50 mg/kg/day IP, mean±SEM
Experimental: The selective JNK inhibitor Compound JNKi-1 was tested in a bleomycin-induced dermal fibrosis mouse model, which is considered to represent the early and inflammatory stages of systemic sclerosis (Akhmetshina A, Venalis P, Dees C, Busch N, Zwerina J, Schett G, Distler O, Distler J H, Treatment with imatinib prevents fibrosis in different preclinical models of systemic sclerosis and induces regression of established fibrosis, Arthritis Rheum. 2009; 60(1):219-24). […] In animal models it will similarly induce injury and fibrosis at the site of delivery.
Male and female DBA/2J mice were used. Mice were fed a standard diet with water ad libitum. The room temperature was kept constant at 22° C. with a humidity of 60%.
Compound JNKi-1 was dissolved in 0.5% carboxymethylcellulose (CMC)/0.25% Tween 80 in water. Bleomycin was dissolved in 0.9% sodium chloride (NaCl) at a concentration of 0.5 mg/mL in a total volume of 100 μL. The positive control compound Imatinib mesylate was dissolved in 0.9% NaCl at a concentration of 50 mg/kg/day in a total volume of 100 μL.
Two different dose levels of the JNK-inhibitor Compound JNKi-1 (50 mg/kg and 150 mg/kg, administered twice daily) were used to analyze the anti-fibrotic activity in a mouse model of bleomycin-induced skin fibrosis. […] DBA/2J mice (n=5/sex/group) were assigned to one of five treatment groups: • Control group: 0.5% CMC/0.25% Tween 80 in water orally (PO) twice daily (BID) and subcutaneous injections of 100 μL 0.9% NaCl. • Untreated bleomycin group: intradermal injection of bleomycin and 0.5% CMC/0.25% Tween 80 in water orally BID. • 50 mg/kg Compound JNKi-1: intradermal injection of bleomycin and Compound JNKi-1 orally BID. • 150 mg/kg Compound JNKi-1: intradermal injection of bleomycin and Compound JNKi-1 orally BID. • Positive control group: intradermal injection of bleomycin and imatinib 50 mg/kg/day administered intraperitoneally (IP).
Localized dermal fibrosis was induced by injection of bleomycin every other day for 3 weeks in defined areas of the upper back. Compound JNKi-1 or imatinib was administrated starting from the first dose of bleomycin.
The dermal thickness was determined by staining with hematoxylin and eosin (H & E). The activated fibroblasts (myofibroblasts) at the fibrotic lesions were quantified by immunohistochemistry (IHC) for alpha smooth muscle actin (α-SMA). Collagen concentration in lesional skin was analyzed by hydroxyproline assay. Data are expressed as mean±standard error of the mean (SEM). SPSS17.0 software and the Mann-Whitney-U-test were used for statistical analyses. A p-value of less than 0.05 was considered statistically significant.

[2] = tested on: CD-IGS rats; test: Rat model of excisional wound healing; conditions: 0.5 mg/kg qd orally
Experimental: Male CD-IGS rats (Strain code 001; n=32-52 per experiment) were obtained from Charles River Laboratories at a body weight of 175-195 g. Rats were housed in regular shoebox cages and allowed to become acclimated for a minimum of 1 week. Rats were fed Harlan Teklad (No. 7001) 4% mouse/rat diet and water ad libitum and were maintained on a 12-hour light/dark cycle.
Suspensions of Compound JNKi-1 were prepared in aqueous 0.5% CMC and 0.25% Tween-80. The formulations were homogenized using a TEFLON® pestle and mortar (Potter-Elvehjem tissue grinder). Vehicle (aqueous solution of 0.5% carboxymethylcellulose, and 0.25% Tween-80) and test article compounds were dosed at a volume of 5 mL/kg. Groups of rats (n=4-8/group) were dosed orally with vehicle, Dexamethasone (0.5 mg/kg) or Compound JNKi-1 (10 mg/kg, 30 mg/kg or 60 mg/kg) daily throughout the study starting 4 days prior to the procedure and continuing for up to […]. Compound JNKi-1 treated groups and the respective vehicle control group were dosed twice daily (bid) with an 8 hr separation between the doses. Dexamethasone treated animals and the respective vehicle control group were dosed once daily (qd) for the duration of the study.
Rats were anesthetized by inhaled isoflurane and the dorsal area was shaved and swabbed with 70% alcohol. Two points were marked 5.5 and 8.5 cm from the base of the skull along the midline. Four further points were marked 1 cm at either side of the midline, two at each of the marked points. These delineated the centers of four excisional wounds. The biopsy punch (6 mm diameter) was aligned vertically over the center of a mark and the epidermis, dermis and panniculus carnosus pierced by applying pressure and twisting at the same time. The skin plug was then removed. This was repeated for the remaining wounds (FIG. 15). The animal was then allowed to recover. All animals were housed singly during the experiment. Rats were monitored twice a day for the first 24 hours following the procedure and then daily until the end of the study. Body weights were recorded two or three times per week. Animals were sacrificed via CO2 asphyxiation at various time-points (day 1, 5, 10 or 14) following wounding.
Each wound size was measured using an electronic digital caliper and the percent of wound remaining open was calculated relative to the initial wound size recorded on day 0 (day of wounding procedure). Four values were averaged for each animal (four wounds on each rat). Measurements were taken at different time-points throughout the study.
Wounds and 2 mm of surrounding tissue were excised using an 8 mm biopsy punch. Wounds were harvested on days 1, 5, 10 and 14 following the procedure. Tissues were fixed in neutral buffered formalin for 3 h then transferred to 100% ethanol. Tissues were paraffin-embedded and four μm cross sections were cut and mounted on poly-lysine slides and stored in slide boxes at room temperature.
One slide for each specimen was stained for H&E to assess granulation-tissue formation and re-epithelialization of the wound gap.
Samples collected on day 10 and 14 were stained with Trichrome Stain (Masson) Kit (Sigma, HT15) to evaluate collagen deposition and remodeling.
Tissue sections were deparaffinized and hydrated to deionized (DI) water. Sections were incubated in preheated Bouin' Solution (Sigma, HT10-132) at 56° C. overnight and then thoroughly rinsed in tap water. Sections were stained in Weigert's Iron Hematoxylin solution (Sigma, HT10-79) for 15 min, washed, and counterstained with Biebrich Scarlet Acid Fuchsin solution. After washing, sections were incubated with Phosphotungstic-Phosphomolybdic acid solution for 15 min and then stained with Aniline Blue solution. Sections were dehydrated and cleared in xylene.
Wound healing was evaluated on day 10 and day 14 after the procedure. H&E sections were scored for re-epithelialization using the following criteria: […]

[3] = tested on: Tsk-1 mice; test: Tight skin-1 (Tsk-1) mouse model of systemic sclerosis; conditions: 50 mg/kg/day IP, 6 weeks
Experimental: The antifibrotic effects of the JNK inhibitor Compound JNKi-1 were tested in a murine tight skin-1 (Tsk-1) model of systemic sclerosis. In this model, a dominant mutation in the fibrillin 1 gene (Fbn1^Tsk+/−) leads to a systemic sclerosis-like disease with inflammatory infiltrates and massive fibrosis of the skin (Akhmetshina A, Venalis P, Dees C, Busch N, Zwerina J, Schett G, et al., Treatment with imatinib prevents fibrosis in different preclinical models of systemic sclerosis and induces regression of established fibrosis, Arthritis Rheum. 2009; 60(1):219-24).
Male and female TSK-1 mice were used. Mice were fed a standard diet with water ad libitum. The room temperature was kept constant at 22° C. with a humidity of 60%.
Compound JNKi-1 was dissolved in 0.5% carboxymethylcellulose (CMC)/0.25% Tween 80 in water. As vehicle control a solution of 0.5% CMC/0.25% Tween 80 in water was used. Imatinib mesylate was dissolved in 0.9% NaCl at a concentration of 50 mg/kg/day in a total volume of 100 μL.
Groups of Tsk-1 mice (n=4/sex/group) were assigned to one of five treatment groups: • Untreated wildtype (Fbn1^Tsk−/−) group received 0.5% CMC/0.25% Tween 80 in water orally (PO) twice daily (BID). • Untreated Fbn1Tsk+/− mice received 0.5% CMC/0.25% Tween 80 in water orally BID. • Compound JNKi-1-treated Fbn1^Tsk+/− received 50 mg/kg orally BID. • Compound JNKi-1-treated Fbn1^Tsk+/− received 150 mg/kg orally BID. • Imatinib mesylate-treated Fbn1^Tsk+/− group received 50 mg/kg/day administered intraperitoneally (IP).
Treatments with Compound JNKi-1 and control compound were started at Week 4. After 6 weeks of treatment, mice were sacrificed, and the antifibrotic effects from each treatment were analyzed.
Antifibrotic effects were determined by measuring the dermal thickness and quantifying the numbers of myofibroblasts in the lesional skin. Dermal thickness was determined by measuring the distance from the epidermal/dermal border to the dermal/subdermal border in H & E-stained sections at four different sites. The number of myofibroblasts was quantified by staining for alpha smooth muscle actin (α-SMA) in paraffin-embedded sections. Data are expressed as mean±standard error of the mean (SEM). SPSS17.0 software and the Mann-Whitney-U-test were used for statistical analyses. A p-value of less than 0.05 was considered statistically significant.

Cc1ccc(NC(=O)c2ccc(CN3CCN(C)CC3)cc2)cc1Nc1nccc(-c2cccnc2)n1 [imatinib, reference compound]
reduction in dermal thickening ([1]; 3 weeks bleomycin): 46%±5% | decrease of myofibroblast count [1]: 51%±10%

C[C@@H]1C[C@H]2[C@@H]3CCC4=CC(=O)C=C[C@]4(C)[C@@]3(F)[C@@H](O)C[C@]2(C)[C@@]1(O)C(=O)CO [Dexamethasone, reference compound]
loss of initial body weight mass [2]: about 10% | wound gap remaining open at day 10 post wounding [2]: approximately 70%

Cc1ccc(NC(=O)c2ccc(CN3CCN(C)CC3)cc2)cc1Nc1nccc(-c2cccnc2)n1 [imatinib mesylate, reference compound]
decrease of number of myofibroblasts [3]: 99%±15% | decrease of hypodermal thickness ([3]; compared to untreated mice): 71%±7%
